Nine molecules from ChEMBL document CHEMBL2380240, “Discovery, synthesis, selectivity modulation and DMPK characterization of 5-azaspiro[2.4]heptanes as potent orexin receptor antagonists” (Bioorg Med Chem Lett, 2013) can be followed below.

One data set is filed under the species Homo sapiens. Kind of data set: Selectivity ratio for human recombinant OX1 to human recombinant OX2.
The target of data set [1] is T1, CYP2C9 (Homo sapiens, UniProt P11712). Description: Inhibition of human recombinant CYP2C9 at 1 uM by fluorimetric assay. Type of data set: ADME.
Data set [2] deals with T2, CYP2C19 (Homo sapiens, UniProt P33261). Description: Inhibition of human recombinant CYP2C19 at 1 uM by fluorimetric assay. Format: ADME.
Data set [3] addresses T3, CYP1A2 (Homo sapiens, UniProt P05177).
T3 sequence (P05177 whole entry): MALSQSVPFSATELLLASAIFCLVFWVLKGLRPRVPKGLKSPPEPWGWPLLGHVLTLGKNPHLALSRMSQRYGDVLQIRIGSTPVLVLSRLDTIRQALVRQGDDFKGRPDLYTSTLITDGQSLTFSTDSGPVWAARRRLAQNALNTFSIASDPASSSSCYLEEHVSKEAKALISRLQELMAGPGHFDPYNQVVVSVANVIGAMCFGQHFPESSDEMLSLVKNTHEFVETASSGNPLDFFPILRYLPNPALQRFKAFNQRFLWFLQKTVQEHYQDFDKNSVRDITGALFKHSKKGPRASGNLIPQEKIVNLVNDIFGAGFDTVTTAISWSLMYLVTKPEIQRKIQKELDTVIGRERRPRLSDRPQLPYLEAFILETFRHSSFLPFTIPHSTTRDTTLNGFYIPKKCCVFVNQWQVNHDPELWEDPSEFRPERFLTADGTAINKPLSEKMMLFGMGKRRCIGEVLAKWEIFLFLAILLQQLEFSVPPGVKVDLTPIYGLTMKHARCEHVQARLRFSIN
Description: Inhibition of human recombinant CYP1A2 at 1 uM by fluorimetric assay. Type of data set: ADME.

For data set [4], the target named is T4, CYP2D6 (Homo sapiens, UniProt P10635). Description: Inhibition of human recombinant CYP2D6 at 1 uM by fluorimetric assay. Format: ADME.
For data set [5], the target named is T5, CYP3A4 (Homo sapiens, UniProt P08684). Description: Inhibition of human recombinant CYP3A4 using BFC as substrate at 1 uM by fluorimetric assay. Type of data set: ADME. The settings on record: recombinant CYP3A4, probe BFC.
The target in data set [6] is T5, CYP3A4. Kind of data set: Inhibition of human recombinant CYP3A4 using DBF as substrate at 1 uM by fluorimetric assay. Format: ADME. The settings on record: recombinant CYP3A4, probe DBF.
Data set [7] deals with T6, Orexin/Hypocretin receptor type 1 (Homo sapiens) (UniProt O43613).
T6 sequence (whole entry): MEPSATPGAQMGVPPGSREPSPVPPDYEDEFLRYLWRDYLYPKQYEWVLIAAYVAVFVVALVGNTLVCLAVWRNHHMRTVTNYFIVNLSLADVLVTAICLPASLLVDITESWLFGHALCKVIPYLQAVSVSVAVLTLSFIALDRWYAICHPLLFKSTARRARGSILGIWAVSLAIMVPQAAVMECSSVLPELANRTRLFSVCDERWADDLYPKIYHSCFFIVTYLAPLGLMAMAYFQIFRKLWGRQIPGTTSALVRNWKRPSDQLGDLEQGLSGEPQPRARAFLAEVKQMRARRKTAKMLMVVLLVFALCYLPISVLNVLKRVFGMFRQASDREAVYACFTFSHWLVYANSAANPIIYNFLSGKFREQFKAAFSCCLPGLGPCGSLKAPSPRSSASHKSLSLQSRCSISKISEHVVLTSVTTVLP
Kind of data set: Antagonist activity at human recombinant OX1 receptor expressed in CHO cells assessed as OXA-stimulated intracellular calcium mobilization by FLIPR assay. Type of data set: functional, cell-based. For orientation: Calcium flux is commonly read through the fluorescence of an indicator in the cells.

For data set [8], the target named is T7, Orexin receptor type 2 (Homo sapiens) (UniProt O43614).
T7 sequence (whole entry): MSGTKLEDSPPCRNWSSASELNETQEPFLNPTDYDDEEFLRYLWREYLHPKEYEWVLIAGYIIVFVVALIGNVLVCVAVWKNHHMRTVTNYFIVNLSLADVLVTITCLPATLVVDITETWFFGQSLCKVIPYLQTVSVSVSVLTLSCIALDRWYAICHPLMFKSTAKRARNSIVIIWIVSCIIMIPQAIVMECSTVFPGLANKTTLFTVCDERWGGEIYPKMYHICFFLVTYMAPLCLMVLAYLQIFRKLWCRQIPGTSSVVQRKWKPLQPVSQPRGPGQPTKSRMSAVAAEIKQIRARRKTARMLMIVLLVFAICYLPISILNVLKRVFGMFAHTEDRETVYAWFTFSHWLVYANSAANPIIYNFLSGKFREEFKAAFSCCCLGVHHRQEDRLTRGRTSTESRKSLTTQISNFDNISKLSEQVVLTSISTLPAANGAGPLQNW
Kind of data set: Antagonist activity at human recombinant OX2 receptor expressed in HEK293 cells assessed as OXB-stimulated intracellular calcium mobilization by FLIPR assay. Format: functional, cell-based.

The target in data set [9] is T8, Cytochrome P450 3A4 (Homo sapiens, UniProt P08684). Kind of data set: Time dependent inhibition of human recombinant CYP3A4 using BFC as substrate incubated for 30 mins prior to substrate addition. Type of data set: ADME. The settings on record: recombinant enzyme, 0.5 h.
The target of data set [10] is T2, CYP2C19. Description: Inhibition of human recombinant CYP2C19 at 3 uM by fluorimetric assay. Type of data set: ADME.
Data set [11] concerns the target T1, CYP2C9. Description: Inhibition of human recombinant CYP2C9 at 3 uM by fluorimetric assay. Type of data set: ADME.
For data set [12], the target named is T3, CYP1A2. Kind of data set: Inhibition of human recombinant CYP1A2 at 3 uM by fluorimetric assay. Format: ADME.
The target in data set [13] is T5, CYP3A4. Description: Inhibition of human recombinant CYP3A4 using BFC as substrate at 3 uM by fluorimetric assay. The settings on record: recombinant CYP3A4, probe BFC. Format: ADME.
Data set [14] has as its target T4, CYP2D6. Description: Inhibition of human recombinant CYP2D6 at 3 uM by fluorimetric assay. Type of data set: ADME.
The target of data set [15] is T5, CYP3A4. Kind of data set: Inhibition of human recombinant CYP3A4 using DBF as substrate at 3 uM by fluorimetric assay. Type of data set: ADME. The following applies: recombinant CYP3A4, probe DBF.
The target in data set [16] is T8, Cytochrome P450 3A4. Description: Inhibition of human recombinant CYP3A4 using BFC as substrate by fluorimetric assay. Type of data set: ADME.
Data set [17] can be described thus: Ratio of drug uptake from rat brain to plasma at 1 mg/kg, iv after 1 hr. Format: ADME, organism-based. Also on record: dose 1 mg/kg, route intravenous. The following applies: read-out: BPR.
Data set [18] in a line: Volume of distribution at steady state in rat. Type of data set: ADME, organism-based. The settings on record: in vivo, read-out: Vdss.
The nature of data set [19]: Plasma clearance in rat at 1 mg/kg, iv. Type of data set: ADME, organism-based. More on the design: dose 1 mg/kg, route intravenous.
The nature of data set [20]: Oral bioavailability in rat at 1 mg/kg. Format: ADME, organism-based. The following applies: in vivo.

Molecules are shown by their SMILES. Bounds are passed on as bounds.

The inhibition is the percentage by which the read-out fell short of the control. What is called pKb is −log10 of the Kb, conventionally taken in molar units. In general, IC50 refers to the point on the concentration scale where inhibition reaches its midpoint. As a reminder, the clearance is the volume of plasma or blood freed of the substance per unit of time. In general, bioavailability refers to dose-corrected exposure relative to a reference, in per cent.

T2 sequence (P33261 whole entry): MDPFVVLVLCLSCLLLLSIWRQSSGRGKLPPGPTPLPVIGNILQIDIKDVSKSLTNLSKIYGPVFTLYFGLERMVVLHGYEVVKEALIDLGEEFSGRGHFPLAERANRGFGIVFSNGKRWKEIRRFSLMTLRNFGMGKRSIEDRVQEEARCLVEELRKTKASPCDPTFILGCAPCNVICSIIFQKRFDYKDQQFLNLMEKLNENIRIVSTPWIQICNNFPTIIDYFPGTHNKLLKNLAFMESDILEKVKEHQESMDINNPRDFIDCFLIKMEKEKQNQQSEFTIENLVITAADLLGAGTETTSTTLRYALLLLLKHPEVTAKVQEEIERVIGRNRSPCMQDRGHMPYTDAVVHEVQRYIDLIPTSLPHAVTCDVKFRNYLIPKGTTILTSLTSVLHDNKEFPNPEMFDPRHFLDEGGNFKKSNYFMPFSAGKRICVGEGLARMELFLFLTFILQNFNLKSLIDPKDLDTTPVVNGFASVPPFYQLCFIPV
T1 sequence (P11712 whole entry): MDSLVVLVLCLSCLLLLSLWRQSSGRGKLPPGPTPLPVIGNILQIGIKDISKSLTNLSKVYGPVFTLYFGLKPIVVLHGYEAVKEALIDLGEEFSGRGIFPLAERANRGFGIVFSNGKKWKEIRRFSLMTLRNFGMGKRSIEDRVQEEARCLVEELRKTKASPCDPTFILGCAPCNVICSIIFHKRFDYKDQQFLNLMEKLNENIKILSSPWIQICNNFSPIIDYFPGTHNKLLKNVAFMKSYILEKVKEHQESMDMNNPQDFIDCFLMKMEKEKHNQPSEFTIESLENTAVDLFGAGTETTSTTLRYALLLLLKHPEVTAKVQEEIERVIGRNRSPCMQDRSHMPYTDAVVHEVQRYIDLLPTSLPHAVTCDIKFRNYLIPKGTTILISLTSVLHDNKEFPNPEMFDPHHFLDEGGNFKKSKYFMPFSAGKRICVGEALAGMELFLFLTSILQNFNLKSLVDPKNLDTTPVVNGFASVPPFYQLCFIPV
T5 sequence (P08684 whole entry): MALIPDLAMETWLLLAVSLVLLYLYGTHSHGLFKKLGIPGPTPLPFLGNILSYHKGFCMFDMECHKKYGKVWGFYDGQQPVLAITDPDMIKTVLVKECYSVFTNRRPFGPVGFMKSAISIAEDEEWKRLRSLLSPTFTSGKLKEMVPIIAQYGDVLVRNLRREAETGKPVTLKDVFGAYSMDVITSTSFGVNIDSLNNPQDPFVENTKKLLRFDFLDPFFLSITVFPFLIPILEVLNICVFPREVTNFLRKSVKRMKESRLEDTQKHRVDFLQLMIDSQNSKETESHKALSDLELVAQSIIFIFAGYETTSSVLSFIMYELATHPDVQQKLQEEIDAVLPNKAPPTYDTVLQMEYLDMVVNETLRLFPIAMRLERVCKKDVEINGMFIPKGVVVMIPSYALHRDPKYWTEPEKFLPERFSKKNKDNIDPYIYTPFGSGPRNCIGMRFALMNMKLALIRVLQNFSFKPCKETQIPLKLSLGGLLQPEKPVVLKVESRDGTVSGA
T8 sequence (P08684 whole entry): as above
T4 sequence (P10635 whole entry): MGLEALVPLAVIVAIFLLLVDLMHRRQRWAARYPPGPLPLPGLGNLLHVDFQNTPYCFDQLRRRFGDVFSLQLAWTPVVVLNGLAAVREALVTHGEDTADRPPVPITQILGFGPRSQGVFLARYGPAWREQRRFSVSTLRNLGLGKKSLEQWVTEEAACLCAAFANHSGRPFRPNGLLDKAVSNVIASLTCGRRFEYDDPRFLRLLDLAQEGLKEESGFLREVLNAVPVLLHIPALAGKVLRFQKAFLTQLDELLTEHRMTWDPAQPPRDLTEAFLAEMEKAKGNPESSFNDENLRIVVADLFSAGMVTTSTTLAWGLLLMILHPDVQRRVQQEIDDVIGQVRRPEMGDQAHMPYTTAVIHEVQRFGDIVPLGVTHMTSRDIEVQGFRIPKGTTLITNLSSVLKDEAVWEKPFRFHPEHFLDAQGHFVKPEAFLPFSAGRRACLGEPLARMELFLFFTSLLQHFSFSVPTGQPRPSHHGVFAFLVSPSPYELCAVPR

As for `Cc1ccc(-c2ncccn2)c(C(=O)N2CC3(CC3)C[C@H]2CNc2cc(C(F)(F)F)ccn2)n1`, the Selectivity ratio in the data set filed under Homo sapiens is more than 100. The inhibition at 1 µM at CYP2C9 [1], on CYP2C19 [2], at CYP1A2 [3], at CYP2D6 [4], at CYP3A4 [5] and on CYP3A4 [6] was less than 39% throughout. The pKb is 6 in data set [7] and 8.1 in data set [8].

With `O=C(c1cc(Cl)ccc1-c1ncccn1)N1CC2(CC2)C[C@H]1CNc1cc(C(F)(F)F)ccn1`, the inhibition at 1 µM at CYP2C9 [1], on CYP2C19 [2], on CYP1A2 [3], on CYP2D6 [4], on CYP3A4 [5] and on CYP3A4 [6] was less than 57% each time. The results for the pKb in data set [7] and in data set [8] were 8.1 and 7.1, respectively.

Turning to `Cc1nc(C(=O)N2CC3(CC3)C[C@H]2CNc2cc(C(F)(F)F)ccn2)c(-c2ccccc2)s1`, the inhibition at 1 µM on CYP2C9 [1], on CYP2C19 [2], on CYP1A2 [3], on CYP2D6 [4], on CYP3A4 [5] and on CYP3A4 [6] was less than 55% in each case. Besides, the pKb in data set [7] turned out to be 8.2; in data set [8] it was 8.5.

For the molecule `Cc1nc(C(=O)N2CC3(CC3)C[C@H]2CNc2ccc(C(F)(F)F)cn2)c(-c2ccccc2)s1`, the “inhibition (INH)” value on Cytochrome P450 3A4 [9] is “Active”. The inhibition at 3 µM at CYP2C19 [10], on CYP2C9 [11], on CYP1A2 [12], on CYP3A4 [13], at CYP2D6 [14] and at CYP3A4 [15] was less than 20% each time. Besides, at Cytochrome P450 3A4 [16], the half-maximal inhibitory concentration (IC50) was more than 100 µM. In addition, the inhibition at 1 µM on CYP2C9 [1], at CYP2C19 [2], on CYP1A2 [3], on CYP2D6 [4], at CYP3A4 [5] and at CYP3A4 [6] was less than 20% in each case. The Kp at 1 h in [17] is 0.6. The Vd in [18] was 3 L/kg. Further, the clearance in data set [19] is 55.2 mL/min/kg. The bioavailability in data set [20] is 20%. In addition, the pKb in data set [7] came out at 8.4; in [8] it was 7.7.

On to `Cc1ccc(-c2ccccc2)c(C(=O)N2CC3(CC3)C[C@H]2CNc2ccc(C(F)(F)F)cn2)n1`, for which the “inhibition (INH)” value at Cytochrome P450 3A4 [9] is reported as “Not Active”. The inhibition at 3 µM on CYP2C19 [10], at CYP2C9 [11], at CYP1A2 [12], at CYP3A4 [13], at CYP2D6 [14] and on CYP3A4 [15] was less than 20% in each case. Further, the IC50 at Cytochrome P450 3A4 [16] came to 64 µM. Further, the Kp at 1 h in [17] is 0.4. In data set [18], the Vd turned out to be 4.4 L/kg. Moreover, the clearance in data set [19] turned out to be 61.3 mL/min/kg. Further, the bioavailability in [20] is 11%. Moreover, the pKb in [7] is 8.6; in data set [8], 8.

`Cc1ccc(-c2ncccn2)c(C(=O)N2CC3(CC3)C[C@H]2CNc2ccc(Cl)cn2)c1`: the inhibition at 1 µM at CYP2C9 [1], at CYP2C19 [2], at CYP1A2 [3], at CYP2D6 [4], at CYP3A4 [5] and at CYP3A4 [6] was less than 53% in each case. Also, the Kp at 1 h in [17] was found to be 0.03. The Vd in [18] was 6.21 L/kg. Further, in [19], the clearance is 11 mL/min/kg. In [20], this molecule showed a bioavailability of 40%. The negative-log Kb (pKb) was 8.2 in data set [7] and less than 5 in data set [8].

Take `Cc1cc(C)nc(NC[C@@H]2CC3(CC3)CN2C(=O)c2nc(C)sc2-c2ccccc2)n1`: on Cytochrome P450 3A4 [9], the “inhibition (INH)” value is listed as “Active”. The half-maximal inhibitory concentration (IC50) on Cytochrome P450 3A4 [16] is 7.9 µM. The inhibition at 1 µM on CYP2C9 [1], on CYP2C19 [2], at CYP1A2 [3], on CYP2D6 [4], at CYP3A4 [5] and on CYP3A4 [6] was less than 16% throughout. The Kp at 1 h in [17] amounted to 0.1. The Vd in data set [18] was found to be 0.7 L/kg. In addition, the clearance in data set [19] turned out to be 41.4 mL/min/kg. The figures for the pKb in data set [7] and in data set [8] were 7.5 and 8.6, respectively.

With `Cc1ccc(-c2ncccn2)c(C(=O)N2CC3(CC3)C[C@H]2CNc2ccc(C(F)(F)F)cn2)n1`, at Cytochrome P450 3A4 [9], the “inhibition (INH)” value is “Active”. The inhibition at 3 µM at CYP2C19 [10], on CYP2C9 [11], at CYP1A2 [12], on CYP3A4 [13], at CYP2D6 [14] and at CYP3A4 [15] was less than 28% each time. For the same molecule, the IC50 on Cytochrome P450 3A4 [16] is more than 100 µM. The Kp at 1 h in data set [17] is 0.5. Further, the Vd in data set [18] stood at 2 L/kg. In [19], this molecule gave a clearance of 47.5 mL/min/kg. The molecule also had a bioavailability in data set [20] of 33%. Further, the results for the pKb in data set [7] and in data set [8] were 8.4 and 7.5, respectively.

For `Cc1ccc(-n2nccn2)c(C(=O)N2CC3(CC3)C[C@H]2CNc2cccc(C)n2)c1`, the inhibition at 1 µM on CYP2C9 [1], at CYP2C19 [2], on CYP1A2 [3], at CYP2D6 [4], at CYP3A4 [5] and at CYP3A4 [6] was less than 34% in each case. Besides, in data set [17], the Kp at 1 h came to 0.2. In addition, the Vd in data set [18] was 0.48 L/kg. Also, in data set [19], the clearance amounted to 33.1 mL/min/kg. Moreover, the pKb in [7] was 7.1; in data set [8], less than 5.
